Source: PMC7376644 (Pharmacology Research & Perspectives, 2020)
“And” between values parts separate entries of the source, which are not always exact repeats. Equal values may be shown once. Read-outs that look alike come from different tables or passages of the source.

Legend:
[1] = Simcyp prediction of total hepatic clearance; set-up: species or system human
Experimental: The clearance of the incubation mixture was expressed as μL/min/pmol for rCYP.
The well‐stirred model was used to estimate the hepatic clearance (CLH) due to metabolism.

[2] = tested on: CYP1A2; assay: CYP selective diagnostic inhibition studies in HLM, furafylline; assay type: in vitro ADME, human; settings: furafylline 10 µmol/L
Experimental: Reactions were carried out in triplicate in 96 well plates. Each reaction was measured at 2 time points, that is at 0 and 30 minutes. […] Furafylline, KTZ, ticlopidine, and quinidine were used as diagnostic inhibitors for CYP 1A2, 3A4/5, 2C19 and 2D6, respectively. The reactions were initiated by addition of NADPH after a pre‐incubation of 5 minutes at 37°C. All reactions were terminated by the addition of 150 µL ice‐cold ACN. Internal standard (0.2 µmol/L DPZ) was added to ACN prior to termination of the assay. This was followed by centrifugation at 4500 g for 20 minutes. An aliquot (50 µL) supernatant was collected and 5 µL was injected and analyzed by liquid chromatography/tandem mass spectrometry (LC/MS/MS). The percent effect of each inhibitor was the estimated contribution of the inhibited CYP calculated using the relationship below: %contribution=amount remaining with inhibitor‐amount remaining without inhibitor/amount remaining without inhibitor×100.

[3] = PZQ-ketoconazole DDI pharmacokinetic study in healthy volunteers; assay type: in vivo, human; settings: for AUC(0-inf) / AUC / CL/F / k el / half-life / Tmax / Vd/F: male, human, plasma
Experimental: Plasma samples were obtained from the AiBST biobank. […] Each participant served as their own control. Each participant provided written informed consent to take part in the study and the study was carried out according to Helsinki Declaration of 1975, as revised in 2008. The study was approved by the Medical Research Council of Zimbabwe (MRCZ) and the Medicines Controls Authority of Zimbabwe (MCAZ). […] The samples were vortexed for 30 seconds and left under gentle agitation for 25 minutes. […] From the supernatant, 20 μL was injected onto the chiral HPLC system for analysis. […] Detection was done using a UV diode array detector at 210 nm. […] The data were gathered and processed using Agilent OpenLab CDS for Chemstation software version 1.9. Linear calibration curves were plotted as concentration vs peak area ratio for analyte to IS with no weighting. […] The pharmacokinetic (PK) analysis was performed using the WinNonlin program, version 8.2 (Pharsight Corp). […] A non-compartmental approach was used for curve plotting and parameter calculation. The area under the curve (AUC) from time 0 to the last sampling time point (AUCt) was computed using the log-linear trapezoidal rule. The linear trapezoidal rule was used for the ascending part of the PK curve, while the log trapezoidal rule was used for the descending part of the graph. The AUC extrapolated to infinite time was calculated as AUC∞ = AUCt + Ct/K el where Ct is the concentration of the last sample taken and K el is the terminal elimination rate constant. The terminal elimination rate constant K el was determined by least squares regression analysis in the terminal phase of the semi log concentration-time curve. […] Statistical analysis was performed using the GraFit software (version 3.0, Erithacus Software Limited). […] Analysis of variance (ANOVA) was performed on the AUC and C max after transformation of the data to their natural logarithmic (ln) values.

[4] = target: CYP2C19 (Homo sapiens, UniProt P33261); assay: Qualitative substrate disappearance assay; assay type: in vitro ADME; set-up: purchased CYPEX CYP008; host or cells: Escherichia coli; settings: 20 pmols rCYP, 1.0 µmol/L substrate, 30 minutes
Experimental: All reactions were performed in triplicate in 96‐well plates. […] The substrate was diluted to 40% ACN so that the percent organic component in the final solution was maintained at 1%. […] The reactions were initiated by addition of NADPH after a pre‐incubation of 5 minutes at 37°C. All reactions were terminated by the addition of 150 µL of ice‐cold ACN at either 0 minute (control) or 30 minutes (reaction). This was followed by centrifugation at 4500 g for 20 minutes. An aliquot (50 µL) supernatant was collected and 5 µL was injected and analyzed by liquid chromatography/tandem mass spectrometry (LC/MS/MS). Metabolism was signified qualitatively by loss of substrate from the media using the relationship: %remaining compound=[…]Peak area atT30min/Peak area atT0min×100.

[5] = target: T1, CYP1A2 (Homo sapiens, UniProt P05177); assay: in vitro; settings: recombinant CYP1A2, pH 7.4
T1 sequence (P05177 1-516): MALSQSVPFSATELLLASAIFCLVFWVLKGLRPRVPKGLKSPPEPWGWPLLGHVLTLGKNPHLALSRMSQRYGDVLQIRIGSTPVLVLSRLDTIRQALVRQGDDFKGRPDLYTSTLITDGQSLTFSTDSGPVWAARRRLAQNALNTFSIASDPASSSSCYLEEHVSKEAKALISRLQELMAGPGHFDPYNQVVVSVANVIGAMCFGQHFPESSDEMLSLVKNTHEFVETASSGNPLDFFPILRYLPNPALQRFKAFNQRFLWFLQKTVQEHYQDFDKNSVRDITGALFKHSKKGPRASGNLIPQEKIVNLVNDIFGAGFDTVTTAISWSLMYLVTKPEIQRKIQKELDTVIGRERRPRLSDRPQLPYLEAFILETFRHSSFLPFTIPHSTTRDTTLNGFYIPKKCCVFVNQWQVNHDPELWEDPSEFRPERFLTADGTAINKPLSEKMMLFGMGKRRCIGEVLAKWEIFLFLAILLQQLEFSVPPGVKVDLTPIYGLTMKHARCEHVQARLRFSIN

[6] = PZQ + ketoconazole vs PZQ alone
[7] = single oral 20 mg/kg PZQ alone, n = 9, listed as R‐Praziquantel, 20 mg/kg

Chain of CYP2C19 (P33261 whole entry): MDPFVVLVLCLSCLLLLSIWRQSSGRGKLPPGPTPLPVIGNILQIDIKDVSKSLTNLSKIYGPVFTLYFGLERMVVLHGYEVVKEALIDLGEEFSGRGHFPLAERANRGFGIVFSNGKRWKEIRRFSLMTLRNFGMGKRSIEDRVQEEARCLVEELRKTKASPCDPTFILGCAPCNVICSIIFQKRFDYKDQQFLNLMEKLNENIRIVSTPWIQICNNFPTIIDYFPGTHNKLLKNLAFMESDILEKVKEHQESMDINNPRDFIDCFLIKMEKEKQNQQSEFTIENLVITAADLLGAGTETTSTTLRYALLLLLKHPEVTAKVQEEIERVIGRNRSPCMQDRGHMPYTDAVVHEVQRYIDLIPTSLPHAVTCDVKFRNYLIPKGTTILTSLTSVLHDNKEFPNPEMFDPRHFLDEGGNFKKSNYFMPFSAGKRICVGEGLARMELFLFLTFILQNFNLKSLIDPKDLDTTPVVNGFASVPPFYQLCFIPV

Predicted total CLH (Simcyp) ([1]; metabolite formation assay): 9.777 mL/min/kg
Predicted total CLH (Simcyp) ([1]; substrate depletion assay): 6.923 mL/min/kg
Contribution of CYP1A2 [2]: 61%
Clearance/F, treatment mean (SD) ([3]; 20 mg/kg PZQ plus 200 mg ketoconazole, n = 9): 1146 (992.1) L/h
Decrease of mean C max with KTZ ([3]; PZQ + KTZ vs PZQ alone): 11.85%
AUCinf, difference observed % [3, 6]: 9% and 9.26%
AUCt0‐tlast, difference observed % [3, 6]: −14.68%
C max, difference observed % [3, 6]: −11.85%
Clearance/F, difference observed % [3, 6]: 26.99%
Elimination rate constant, difference observed % [3, 6]: −4.350%
Half life, difference observed % [3, 6]: 79.64%
T max, difference observed % [3, 6]: −46.33%
V d/F, difference observed % [3, 6]: 74.87%
AUCinf, difference observed % ([3]; PZQ + ketoconazole vs PZQ alone, listed as R‐Praziquantel): 9.290%
AUC(0-inf) ([3]; oral, 20 mg/kg, 20 mg/kg PZQ plus 200 mg ketoconazole, n = 9, read-out: AUCinf, treatment geo mean): 1290 ng·h/mL
AUC(0-inf) ([3]; oral, 20 mg/kg, 20 mg/kg PZQ plus 200 mg ketoconazole, n = 9, read-out: AUCinf, treatment mean (SD)): 1470 ng·h/mL
AUC ([3]; oral, 20 mg/kg, 20 mg/kg PZQ plus 200 mg ketoconazole, n = 9, read-out: AUCt0‐tlast, treatment geo mean): 945 ng·h/mL
CL/F ([3]; oral, 20 mg/kg, 20 mg/kg PZQ plus 200 mg ketoconazole, n = 9, read-out: Clearance/F, treatment geo mean (converted)): 15300 mL/min
CL/F ([3]; oral, 20 mg/kg, 20 mg/kg PZQ plus 200 mg ketoconazole, n = 9, read-out: Clearance/F, treatment mean (SD) (converted)): 19100 mL/min
k el ([3]; oral, 20 mg/kg, 20 mg/kg PZQ plus 200 mg ketoconazole, n = 9, read-out: Elimination rate constant, treatment geo mean (converted)): 4.44e-05 s⁻¹
k el ([3]; oral, 20 mg/kg, 20 mg/kg PZQ plus 200 mg ketoconazole, n = 9, read-out: Elimination rate constant, treatment mean (SD) (converted)): 6.11e-05 s⁻¹
half-life ([3]; oral, 20 mg/kg, 20 mg/kg PZQ plus 200 mg ketoconazole, n = 9, read-out: Half life, treatment geo mean (converted)): 4.14 h
half-life ([3]; oral, 20 mg/kg, 20 mg/kg PZQ plus 200 mg ketoconazole, n = 9, read-out: Half life, treatment mean (SD) (converted)): 6 h
Tmax ([3]; oral, 20 mg/kg, 20 mg/kg PZQ plus 200 mg ketoconazole, n = 9, read-out: T max, treatment geo mean): 1.53 h
Tmax ([3]; oral, 20 mg/kg, 20 mg/kg PZQ plus 200 mg ketoconazole, n = 9, read-out: T max, treatment mean (SD)): 1.61 h
Vd/F ([3]; oral, 20 mg/kg, 20 mg/kg PZQ plus 200 mg ketoconazole, n = 9, read-out: V d/F, treatment geo mean): 5480 L
Vd/F ([3]; oral, 20 mg/kg, 20 mg/kg PZQ plus 200 mg ketoconazole, n = 9, read-out: V d/F, treatment mean (SD)): 7880 L
AUC ([3]; oral, 20 mg/kg, AUC, PZQ alone): 1350 ± 1470 ng·h/mL
AUC ([3]; oral, 20 mg/kg, read-out: AUC from the in vivo pharmacokinetic study): 2400 ng·h/mL
AUC ([3]; oral, AUC, PZQ + KTZ): 1470 ± 767 ng·h/mL
AUC(0-inf) ([3]; po, 20 mg/kg, single oral 20 mg/kg PZQ alone, n = 9, read-out: AUCinf, reference geo mean): 1300 ng·h/mL
AUC(0-inf) ([3]; po, 20 mg/kg, single oral 20 mg/kg PZQ alone, n = 9, read-out: AUCinf, reference mean (SD)): 1340 ng·h/mL
AUC ([3]; po, 20 mg/kg, single oral 20 mg/kg PZQ alone, n = 9, read-out: AUCt0‐tlast, reference geo mean): 1120 ng·h/mL
AUC ([3]; po, 20 mg/kg, single oral 20 mg/kg PZQ alone, n = 9, read-out: AUCt0‐tlast, reference mean (SD)): 1240 ng·h/mL
CL/F ([3]; po, 20 mg/kg, single oral 20 mg/kg PZQ alone, n = 9, read-out: Clearance/F, reference geo mean (converted)): 14600 mL/min
CL/F ([3]; po, 20 mg/kg, single oral 20 mg/kg PZQ alone, n = 9, read-out: Clearance/F, reference mean (SD) (converted)): 15000 mL/min
k el ([3]; po, 20 mg/kg, single oral 20 mg/kg PZQ alone, n = 9, read-out: Elimination rate constant, reference geo mean (converted)): 6.11e-05 s⁻¹
k el ([3]; po, 20 mg/kg, single oral 20 mg/kg PZQ alone, n = 9, read-out: Elimination rate constant, reference mean (SD) (converted)): 6.39e-05 s⁻¹
half-life ([3]; po, 20 mg/kg, single oral 20 mg/kg PZQ alone, n = 9, read-out: Half life, reference geo mean (converted)): 3.21 h
half-life ([3]; po, 20 mg/kg, single oral 20 mg/kg PZQ alone, n = 9, read-out: Half life, reference mean (SD) (converted)): 3.34 h
Tmax ([3]; po, 20 mg/kg, single oral 20 mg/kg PZQ alone, n = 9, read-out: T max, reference geo mean): 2.59 h
Tmax ([3]; po, 20 mg/kg, single oral 20 mg/kg PZQ alone, n = 9, read-out: T max, reference mean (SD)): 3 h
Vd/F ([3]; po, 20 mg/kg, single oral 20 mg/kg PZQ alone, n = 9, read-out: V d/F, reference geo mean): 4050 L
Vd/F ([3]; po, 20 mg/kg, single oral 20 mg/kg PZQ alone, n = 9, read-out: V d/F, reference mean (SD)): 4510 L
Clearance/F, reference mean (SD) ([3]; single oral 20 mg/kg PZQ alone, n = 9, 20 mg/kg): 902.09 ± 264 L/h
C max, reference mean (SD) [3, 7]: 313.1 (131.1) ng/mL
Clearance/F, reference mean (SD) [3, 7]: 902.1 (264.9) L/h
Depletion of substrate by CYP2C19 [4]: complete depletion
half-life at 1 µmol/L [5]: 7.54 min
SMILES: O=C(C1CCCCC1)N1CC(=O)N2CCc3ccccc3[C@@H]2C1 [R‐PZQ, R‐Praziquantel]
